Results reported in patent US20070148154A1, “Use of superoxide dismutase mimetics and reductase gultatione in the form of anticancer drugs” (UNIVERSITE RENE DESCARTES (PARIS V), priority 2004, published 2007).

What was measured:
Hepa 1-6 tumor cells = experiment: In vitro viability test (MTT); format: cell-based, mouse; conditions: for viability reduced by: 400 μM, 48 h
Method: (§4) In vitro viability tests, in response to the treatment with NAC, CuDIPS, MnTBAP or MnDPDP, were carried out on the cell lines of Example 1 and on normal human leukocytes. The latter were obtained from normal volunteers, after informed consent, by taking venous blood samples collected on an anticoagulant (lithium-heparinate). The red blood cells were lysed by osmotic shock using a hypotonic solution of potassium acetate and the leukocytes were cultured under the conditions described in Example 1.
(§5) For the viability test, the cells (2×10^4 cells/well) were seeded into 96-well plates (COSTAR, Corning Inc. NY, USA) and incubated for 48 hours in complete medium supplemented with increasing concentrations, from 0 to 400 μm, of NAC, of MnTBAP, of CuDIPS or of MnDPDP. The cell viability was evaluated by reduction of a methylthiazoletetrazolium salt (MTT; SIGMA) into formazan. The cells were exposed to 20 μl of MTT (5 mg/ml in PBS) and incubated for 4 h at 37° C. 150 μl of medium were then removed from each well and the reaction was visualized by the addition of 100 μl of DMSO (SIGMA). The absorbance was analyzed for each well at 550 nm and at 630 nm with an ELISA plate reader. The number of viable cells was determined by the difference between the absorbance at 550 nm and the absorbance at 630 nm.
(§6) The viability tests were carried out on the CT26, Hepa 16 and A549 tumor lines, and on normal human leukocytes, according to the protocol described in Example 2.

A549 tumor cells = experiment: In vitro viability test (MTT); format: cell-based, human; conditions: for viability reduced by: 400 μM, 48 h
Method: as §4, §5, §6

normal human leukocytes = experiment: In vitro viability test (MTT); conditions: for decrease in viability of normal leukocytes, antitumor agent alone: no antioxidant; for effect on viability of normal human leukocytes / decrease in cell viability, maximum: 0 to 400 μM, 48 h; for effect on the cytotoxic effect of taxol on normal leukocytes: with 20 μM taxol; for effect on the cytotoxic effect of taxol on normal leukocytes / effect on the cytotoxic effect of oxaliplatin on normal leukocytes / effect on the cytotoxic effect of 5-FU on normal leukocytes: increasing concentrations of antioxidant; for effect on the cytotoxic effect of oxaliplatin on normal leukocytes: with 1 mM oxaliplatin; for effect on the cytotoxic effect of 5-FU on normal leukocytes: with 40 mM 5-FU
Method: as §4, §5, §6

[1] = system: A549 (human lung carcinoma); experiment: In vitro cell proliferation assay ([3H]-thymidine); format: cell-based; conditions: for decrease in tumor cell proliferation, antitumor agent alone: no antioxidant
Method: (§7) In vitro cell proliferation assays were carried out on the following cell lines: CT26 (mouse colon carcinoma, ATCC (American Type Culture Collection) No. 2638), Hepa 1-6 (mouse liver hepatoma, ATCC No. 1830), A549 (human lung carcinoma, ATCC No. 185).
(§8) The cell proliferation is determined by incubating the cells for 16 hours with [^3H]-thymidine (1 μCi/well).

[2] = system: Hepa 1-6 (mouse liver hepatoma); experiment: In vitro cell proliferation assay ([3H]-thymidine); format: cell-based; conditions: for decrease in tumor cell proliferation, antitumor agent alone: no antioxidant
Method: as §7, §8

[3] = system: CT26 (mouse colon carcinoma); experiment: In vitro cell proliferation assay ([3H]-thymidine); format: cell-based; conditions: for decrease in tumor cell proliferation, antitumor agent alone: no antioxidant
Method: as §7, §8

CT26 tumor cells = experiment: In vitro viability test (MTT); format: cell-based, mouse; conditions: for viability reduced by: 400 μM, 48 h
Method: as §4, §5, §6

[4] = system: CT26 carcinoma tumor cells in BALB/c mice; experiment: In vivo antitumor activity, subcutaneous CT26 tumors; set-up: species or system mouse; conditions: for decrease in tumor volume at one month compared with the nontreated animals / decrease in tumor volume at one month compared with animals treated only with oxaliplatin: 10 mg/kg i.p.; for decrease in tumor volume at one month compared with the nontreated animals: no oxaliplatin; for decrease in tumor volume at one month compared with animals treated only with oxaliplatin: plus oxaliplatin 20 mg/kg
Method: (§1) The in vivo antitumor activity of various antioxidant treatments was estimated. For these experiments, female six- to eight-week-old BALB/c (for the injection of CT-26 tumor cells) or C57/BL6 (for the injection of Hepa 1-6 tumor cells) mice were used (IFFA CREDO, L'Arbresles, France). Two million tumor cells were injected into the back of the animals subcutaneously. When the size of the tumor reached 200 to 500 mm^3, the animals were given a single injection of 20 mg/kg of oxaliplatin (ELOXATIN®) or of a saline solution.
(§2) The mice were then treated intraperitoneally, two hours after the injection of oxaliplatin or of saline solution, with 10 mg/kg of mangafodipir, of MnTBAP or of CuDIPS, or with 150 mg/kg of NAC, or with a saline solution. The injection of the various antioxidants was continued for one month (three injections per week at the same doses). A group of mice inoculated with tumor cells was not treated.
(§3) The size of the tumors was measured every three days. The tumor volume was calculated as follows: VT (mm^3)=(L×W^2)/2, where L is the longest dimension and W the shortest dimension of the tumor in mm. Fifteen mice were included in each group.

plasmid pcDNA3.1 = experiment: Plasmid DNA alteration (agarose gel electrophoresis, densitometry)
Method: The purified plasmid pcDNA3.1 (INVITROGEN) was used to analyze the potential DNA alterations in response to the addition of molecules used in cancer chemotherapy in the presence, or in the absence, of antioxidant enzyme modulators. This DNA was then stored at −20° C. in 10 mM TRIS, 1 mM EDTA until its use.
The plasmid DNA was incubated with oxaliplatin at a molar ratio of 0.50 in a final volume of 50 μl. MnTBAP (5 μM), CuDIPS (5 μM), mangafodipir (5 μM) or NAC (5 mM) were then added to the solution. The production of superoxide anion was realized by the addition of 200 μM xanthine (SIGMA) and 1 U of xanthine oxidase (SIGMA). The incubation was carried out in the dark at 37° C. for 24 h. At the end of the incubation period, 10 μl aliquots were subjected to 0.8% agarose gel electrophoresis and detected by ethidium bromide staining. The gels were then analyzed by densitometry (VILBER LOURMAT, Marnes-la-Vallée, France).

[5] = system: Hepa 1-6, CT26 and A549 tumor cells; experiment: In vitro cell proliferation assay ([3H]-thymidine), result stated for the tumor lines together; conditions: for reduction in cell proliferation: 400 μM, 48 h incubation; for effect on the cytostatic (antiproliferative) effect of oxaliplatin: with 10 μM oxaliplatin; for effect on the cytostatic (antiproliferative) effect of oxaliplatin / effect on the cytostatic effect of taxol / effect on the cytostatic effect of 5-FU: increasing concentrations of antioxidant; for effect on the cytostatic effect of taxol: with 10 μM taxol; for effect on the cytostatic effect of 5-FU: with 50 μM 5-FU
Method: as §7, §8
The following antitumor molecules: oxaliplatin (belonging to the cisplatin family); taxol; 5-fluorouracil; which are known to induce ROS production in tumor cells, were used. For each of these molecules, cell proliferation assays and cell viability tests were carried out, in the absence of antioxidant molecules, or in the presence of increasing concentrations of NAC, of MnTBAP, of CuDIPS or of MnDPDP.

[6] = system: Hepa 1-6, CT26 and A549 tumor cells; experiment: In vitro viability test (MTT), result stated for the tumor lines together; conditions: for effect on tumor cell viability: 0 to 400 μM, 48 h; for effect on the cytotoxic effect of oxaliplatin on tumor cells: with 10 μM oxaliplatin; for effect on the cytotoxic effect of oxaliplatin on tumor cells / effect on the cytotoxic activity of taxol on tumor cells / effect on the cytotoxic activity of 5-FU on tumor cells: increasing concentrations of antioxidant; for effect on the cytotoxic activity of taxol on tumor cells: with 10 μM taxol; for effect on the cytotoxic activity of 5-FU on tumor cells: with 50 μM 5-FU
Method: In vitro viability tests, in response to the treatment with NAC, CuDIPS, MnTBAP or MnDPDP, were carried out on the cell lines of Example 1 and on normal human leukocytes.
as §5
For each of these molecules, cell proliferation assays and cell viability tests were carried out, in the absence of antioxidant molecules, or in the presence of increasing concentrations of NAC, of MnTBAP, of CuDIPS or of MnDPDP.
as §6

[7] = system: Hepa 1-6 cells in C57BL/6 mice; experiment: In vivo antitumor activity, subcutaneous Hepa 1-6 tumors; set-up: species or system mouse; conditions: for decrease in tumor volume at one month compared with the nontreated animals: no oxaliplatin; for effect on the inhibitory (antitumor) effect of oxaliplatin on tumor growth: mice treated with oxaliplatin 20 mg/kg, NAC 150 mg/kg, SOD mimetics 10 mg/kg i.p.
Method: as §1, §2, §3

[8] = 10 mg/kg i.p., three injections per week

Compound	decrease in tumor volume at one month compared with the nontreated animals ([4]; three injections per week)	decrease in tumor volume at one month compared with animals treated only with oxaliplatin ([4]; three injections per week)	reduction in cell proliferation [5]	effect on the cytostatic (antiproliferative) effect of oxaliplatin [5]	effect on the cytostatic effect of taxol [5]	effect on the cytostatic effect of 5-FU [5]	effect on viability of normal human leukocytes (normal human leukocytes)	effect on the cytotoxic effect of taxol on normal leukocytes (normal human leukocytes)	effect on the cytotoxic effect of oxaliplatin on normal leukocytes (normal human leukocytes)	effect on the cytotoxic effect of 5-FU on normal leukocytes (normal human leukocytes)	effect on tumor cell viability [6]	effect on the cytotoxic effect of oxaliplatin on tumor cells [6]	effect on the cytotoxic activity of taxol on tumor cells [6]	effect on the cytotoxic activity of 5-FU on tumor cells [6]	decrease in tumor volume at one month compared with the nontreated animals [7, 8]	effect on the inhibitory (antitumor) effect of oxaliplatin on tumor growth [7]	viability reduced by (Hepa 1-6 tumor cells)	viability reduced by (A549 tumor cells)	decrease in cell viability, maximum (normal human leukocytes)	viability reduced by (CT26 tumor cells)	other results
CC(=O)O[C@H]1C(=O)[C@@]2(C)[C@H]([C@H](OC(=O)c3ccccc3)[C@]3(O)C[C@H](OC(=O)[C@H](O)[C@@H](NC(=O)c4ccccc4)c4ccccc4)C(C)=C1C3(C)C)[C@]1(OC(C)=O)CO[C@@H]1C[C@@H]2O [taxol]	–	–	–	–	–	–	–	–	–	–	–	–	–	–	–	–	–	–	–	–	cytotoxicity at 10 µM (Hepa 1-6 tumor cells; Mus musculus, Hepa1-6, 10 μM, no antioxidant, read-out: decrease in cell viability, antitumor agent alone, on average): 25%; cytotoxicity at 10 µM (A549 tumor cells; Homo sapiens, A549, 10 μM, no antioxidant, read-out: decrease in cell viability, antitumor agent alone, on average): 47%; decrease in viability of normal leukocytes, antitumor agent alone (normal human leukocytes; 20 μM): approximately 50%; decrease in tumor cell proliferation, antitumor agent alone ([1]; 10 μM): 85%; decrease in tumor cell proliferation, antitumor agent alone ([2]; 10 μM): 65%; decrease in tumor cell proliferation, antitumor agent alone ([3]; 10 μM): 71%; cytotoxicity at 10 µM (CT26 tumor cells; Mus musculus, CT26, 10 μM, no antioxidant, read-out: decrease in cell viability, antitumor agent alone, on average): 50%
manganese dipyridoxyl phosphate [MnDPDP]	54%	63%	~90%	increase	increases	increase	does not influence	inhibits	inhibits	inhibits	reduces, in a dose-dependent manner	increase	increases	increases	34%	–	–	–	–	–	effect on the structure of plasmid DNA (form I / II / III) (plasmid pcDNA3.1; 37° C., 24 h, SOD mimetics 5 μM, oxaliplatin maximum at DNA/oxaliplatin ratio 0.5): induces, per se, DNA damage; decrease in tumor volume at one month compared with animals treated only with oxaliplatin ([7]; 10 mg/kg i.p., three injections per week, plus oxaliplatin 20 mg/kg): 63%
CC(=O)N[C@@H](CS)C(=O)O [NAC, N-acetylcystein]	–	–	–	reduces	reduces	inhibits	no effect	decreases	decreases	decreases	no effect	decreases	does not influence	does not modify	–	completely blocks	–	–	–	–	increase in tumor volumes after one month compared with mice which do not receive NAC ([4]; 150 mg/kg i.p., three injections per week, mice not treated with oxaliplatin): 44%; effect on the inhibitory effect of oxaliplatin on tumor growth ([4]; mice treated with oxaliplatin 20 mg/kg, NAC 150 mg/kg i.p.): completely blocks; effect on DNA impairments by mangafodipir, ROS and oxaliplatin (plasmid pcDNA3.1; NAC 5 mM): partially inhibit; effect on DNA impairment by superoxide anions (xanthine/xanthine oxidase) (plasmid pcDNA3.1; NAC 5 mM, X/XO): inhibited; effect on DNA damage by oxaliplatin coincubated with X/XO (plasmid pcDNA3.1; NAC 5 mM, X/XO and low doses of oxaliplatin): decreases the damage; increase in proliferation ([1]; 400 μM, 48 h incubation): 45%; increase in tumor volumes after one month compared with mice which are not given NAC ([7]; 150 mg/kg i.p., three injections per week): 50%; increase in proliferation ([2]; 100 μM, 48 h incubation): 73%; increase in proliferation ([3]; 400 μM, 48 h incubation): 47%
O=C(O)c1ccc(-c2c3nc(c(-c4ccc(C(=O)O)cc4)c4ccc([n-]4)c(-c4ccc(C(=O)O)cc4)c4nc(c(-c5ccc(C(=O)O)cc5)c5ccc2[n-]5)C=C4)C=C3)cc1.[Mn+3] [MnTBAP, Mn(III) tetrakis(5,10,15,20-benzoic acid)-porphyrin]	59%	35%	~90%	increase	increases	increase	–	virtually no influence	increase	only a very weak influence	–	increase	increases	increases	42%	does not significantly increase	62%	37%	18%	75%	–
O=c1[nH]cc(F)c(=O)[nH]1 [5-FU, 5-fluoro-1,2,3,4-tetrahydropyrimidine-2,5-dione]	–	–	–	–	–	–	–	–	–	–	–	–	–	–	–	–	–	–	–	–	cytotoxicity at 50 µM (Hepa 1-6 tumor cells; Mus musculus, Hepa1-6, 50 μM, no antioxidant, read-out: decrease in cell viability, antitumor agent alone, on average): 65%; cytotoxicity at 50 µM (A549 tumor cells; Homo sapiens, A549, 50 μM, no antioxidant, read-out: decrease in cell viability, antitumor agent alone, on average): 25%; decrease in viability of normal leukocytes, antitumor agent alone (normal human leukocytes; 40 mM): approximately 19%; decrease in tumor cell proliferation, antitumor agent alone ([1]; 50 μM): 85%; decrease in tumor cell proliferation, antitumor agent alone ([2]; 50 μM): 91%; decrease in tumor cell proliferation, antitumor agent alone ([3]; 50 μM): 91%; cytotoxicity at 50 µM (CT26 tumor cells; Mus musculus, CT26, 50 μM, no antioxidant, read-out: decrease in cell viability, antitumor agent alone, on average): 85%
CC(C)c1cc(C(=O)[O-])c(O)c(C(C)C)c1.CC(C)c1cc(C(=O)[O-])c(O)c(C(C)C)c1.[Cu+2] [CuDIPS, Cu[II]-[diisopropylsalicylate]]	28%	31%	~90%	increase	increases	increase	–	increases	increase	increases	–	increase	increases	increases	9%	does not significantly increase	74%	50%	50%	85%	–
